The nature of test [1]: HEK-293T viability loss after treatment – luminescence, T-cell screen hits, cytotoxicity control for TCR NF-kB inhibitor project, dose response (AID 489026).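 Note: cells exposed to compound about 14 hours before the viability readout.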 It is filed as functional, cell-based.
The nature of test [2]: reduction of Shn3 3'UTR-driven luciferase in osteoblasts – cell-based, Clone20 osteoblasts, firefly luciferase, cherry-picked, dose response (AID 624132).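 Note: firefly luciferase luminescence from reporter carrying the Shn3 3'UTR in osteoblasts.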 The format is functional.
Test [3] in a line: loss of viability in HepG2 cells – cell-based, CellTiter-Glo, cherry-picked, cytotoxicity control for Shn3 inhibitor project, dose response (AID 624134). It is filed as functional. In general terms: In ATP-based viability assays light output follows the ATP content of the culture.
Test [4] in a line: non-specific 3'UTR reporter inhibition in Clone20-Shn3RL – cell-based, Renilla luciferase, cherry-picked, counter-screen for Shn3 inhibitor project, dose response (AID 624133). It is filed as functional. (Counterscreens check selectivity or assay interference.)
The target in test [5] is T1, Galanin receptor type 3 (Homo sapiens, UniProt O60755).
T1 sequence (O60755 whole entry): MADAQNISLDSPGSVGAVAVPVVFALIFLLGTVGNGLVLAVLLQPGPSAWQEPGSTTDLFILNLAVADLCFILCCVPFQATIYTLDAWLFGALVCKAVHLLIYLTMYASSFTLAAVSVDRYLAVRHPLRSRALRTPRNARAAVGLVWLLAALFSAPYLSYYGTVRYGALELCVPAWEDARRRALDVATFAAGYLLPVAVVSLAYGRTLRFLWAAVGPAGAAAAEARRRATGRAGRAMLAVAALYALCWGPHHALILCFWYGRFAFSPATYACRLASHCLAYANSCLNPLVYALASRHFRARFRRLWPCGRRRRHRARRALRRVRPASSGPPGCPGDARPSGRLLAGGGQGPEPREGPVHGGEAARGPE
The experiment in a line: Fluorescence-based cell-based primary high throughput dose response assay to identify antagonists of the Galanin Receptor 3 (GalR3). The format is functional.

Test [6] can be described thus: cells. The format is functional, cell-based. The conditions noted are these: HEK-CNG.
In test [7] the target is T2, COUP transcription factor 2 (Homo sapiens, UniProt P24468).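 Note: HEK293 cells transiently cotransfected with COUP-TFII expression vector and reporter; luciferase reporter luminescence driven by COUP-TFII from the pX2-168 reporter plasmid.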
T2 sequence (P24468 whole entry): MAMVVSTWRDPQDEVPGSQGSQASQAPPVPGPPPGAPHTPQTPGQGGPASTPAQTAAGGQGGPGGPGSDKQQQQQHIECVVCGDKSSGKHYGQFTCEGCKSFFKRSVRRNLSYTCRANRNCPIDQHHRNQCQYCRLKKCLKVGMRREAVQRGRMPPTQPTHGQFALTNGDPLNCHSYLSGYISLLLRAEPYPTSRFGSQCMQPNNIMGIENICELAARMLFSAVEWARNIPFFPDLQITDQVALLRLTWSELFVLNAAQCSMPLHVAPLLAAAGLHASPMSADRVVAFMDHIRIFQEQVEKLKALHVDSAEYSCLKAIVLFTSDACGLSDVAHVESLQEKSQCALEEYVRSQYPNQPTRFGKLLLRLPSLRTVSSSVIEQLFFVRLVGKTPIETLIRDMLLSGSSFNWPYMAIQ
The experiment in a line: Luminescence-based cell-based high throughput dose response assay to identify inhibitors of COUP-TFII (NR2F2). It is filed as functional.

Test [8] in a line: luciferase reporter signal suppression in cells – H4 neuroglioma cells, luminescence, dose response (AID 1990). The format is functional, cell-based. For orientation: Reporter assays use an easily measured gene product as a stand-in for the process of interest.
The nature of test [9]: Luminescence Cell-Based Dose Response HTS to Identify Inhibitors of 5'UTR Stem-Loop Driven Prion Protein mRNA Translation in H4 Neuroglioblastoma Cells. [Related pubchem assays: 1827 (Project Summary), 1813 (Primary HTS)]. The format is functional.
The subject of test [10] is Vero. The experiment in a line: mammalian cell viability reduction – secondary assay, cytotoxicity control for West Nile virus antiviral project, dose response (AID 1650). The format is functional. Particulars: Chlorocebus sabaeus.
A short description of test [11]: alpha-synuclein stem-loop luciferase translation blockers – H4 neuroglioma cells, luminescence, confirmation (AID 1988). The format is functional, cell-based.
The nature of test [12]: Luminescence Cell-Based Dose Retest to Confirm Inhibitors of Cancer Stem Cells. [Related pubchem assays (depositor defined):AID2717, AID2721]. It is filed as functional. Particulars: Homo sapiens.
Test [13] can be described thus: HIV-1 Vif–A3G interaction blockers – biochemical, TR-FRET, GST-Vif 1-94, biotin-A3G peptide, dose response retest, primary screen (AID 1117319).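 Note: TR-FRET signal of purified GST-Vif binding a biotinylated A3G peptide; inhibitors lower the FRET signal by blocking Vif and A3G binding.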 It is filed as functional.
A short description of test [14]: viability of uninfected HEp-2 cells – cell-based, HTS, cytotoxicity control for RSV inhibitor project, dose response (AID 2410). The format is functional. The conditions noted are these: human respiratory syncytial virus.
A short description of test [15]: cells.
The target in test [16] is T3, RNA-editing ligase 1, mitochondrial (Trypanosoma brucei brucei, UniProt P86926).
T3 sequence (P86926 whole entry): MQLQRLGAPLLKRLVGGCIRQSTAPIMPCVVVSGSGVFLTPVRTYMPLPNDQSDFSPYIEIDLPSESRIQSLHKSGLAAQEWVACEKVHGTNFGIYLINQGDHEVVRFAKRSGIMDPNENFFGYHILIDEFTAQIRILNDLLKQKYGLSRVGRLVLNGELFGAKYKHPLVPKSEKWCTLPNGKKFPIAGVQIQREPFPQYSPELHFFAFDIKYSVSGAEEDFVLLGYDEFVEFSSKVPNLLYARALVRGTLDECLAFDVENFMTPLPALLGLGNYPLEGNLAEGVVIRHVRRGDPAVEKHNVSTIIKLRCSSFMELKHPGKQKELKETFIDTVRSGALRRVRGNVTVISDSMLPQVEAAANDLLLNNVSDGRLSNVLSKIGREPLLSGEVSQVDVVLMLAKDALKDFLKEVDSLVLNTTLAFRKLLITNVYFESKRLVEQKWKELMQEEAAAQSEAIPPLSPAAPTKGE
The experiment in a line: inhibition of trypanosome RNA editing ligase – biochemical, fluorescence, Trypanosoma brucei, dose response (AID 1117295). It is filed as functional.

The source made the active and inactive calls.

The text below walks through data of ChEMBL document CHEMBL1201862, “PubChem BioAssay data set” (2004).

As to `Cc1oc(-c2ccc(Cl)cc2)nc1C[S+]([O-])CC(=O)NCCCN1CCN(Cc2ccccc2)CC1` (stereo not given), the IC50 – broadly, the point on the concentration scale where inhibition reaches its midpoint – in test [1] is > 80 µM (inactive); in [5], 2.03 µM (active); in [7] it was 4.34 µM (active). Also, the AC50 (usually the concentration giving half of the maximal activity seen) in [2] is 2.52 µM (active); in test [3], 1.69 µM (active); in test [4], 4.29 µM (active). For the same compound, the EC50 (as a rule, the concentration needed to bring the measured effect to its halfway point) in test [6] was > 29.9 µM (inactive).

On to `C[C@]12CC[C@H]3C(CCC4(O)CC(O)CC[C@]34C=O)C1=CC[C@H]2c1ccc(=O)oc1` (stereo not given in full), for which the EC50 in test [8] is 6.93 µM (active); in test [9], 5.93 µM (active); in test [11] it was 1.62 µM (active); in [6], > 29.9 µM (inactive). In addition, the CC50 (as a rule, the concentration at which the toxic effect on the cells reaches its halfway point) in test [10] was 20.5 µM (active). Moreover, the AC50 in [12] is 3.49 µM (active). Further, the IC50 in [5] is > 29.9 µM (inactive).

For the compound `Cc1cc(C)nc(N2CCC(C(=O)O)CC2)n1`, in [13], the IC50 was > 100 µM (active).

Regarding `NC(=O)[C@H]1CC2(CC(c3cccc(NC(=O)COc4ccc(Cl)cc4)c3)=NO2)CN1C(=O)c1ccccc1C(=O)c1ccccc1` (stereo not given in full), in test [14], the CC50 was 12.3 µM (active). Further, in test [15], the IC50 was 24.9 µM (active).

Consider `CC(NCC(O)COc1ccc2ccccc2c1)c1ccccc1` (stereo not given), for which the CC50 in [14] is 24.1 µM (active). For the same compound, the IC50 in test [16] is > 96.6 µM (inactive); in [15], > 25 µM (active).
